# In ChEMBL document CHEMBL5260810, “Inhibition of bromodomain-containing protein 9 for the prevention of epigenetically-defined drug resistance” (Bioorg Med Chem Lett, 2017):
# Assays:
# Assay type in all cases: functional, cell-based
# EJM = assay: Cytotoxicity against human EJM cells measured after 8 days; settings: 192 h
# EL4 = assay: Cytotoxicity against mouse EL4 cells measured after 8 days; settings: EL4, 192 h
# JIYOYE = assay: Cytotoxicity against human JIYOYE cells measured after 8 days; settings: 192 h
# LXFL 529 = assay: Cytotoxicity against human LXFL 529 cells measured after 8 days; settings: LXFL 529, 192 h
# [1] = Cytotoxicity against human NCI-H2461 cells measured after 8 days; settings: NCI-H2461, 192 h
# MHH-ES-1 = assay: Cytotoxicity against human MHH-ES-1 cells measured after 8 days; settings: MHH-ES-1, 192 h
# U2OS = assay: Cytotoxicity against human U2OS cells measured after 8 days; settings: 192 h
# CHP-212 = assay: Cytotoxicity against human CHP-212 cells measured after 8 days; settings: CHP-212, 192 h
# [2] = Cytotoxicity against human NCE-G 140 cells measured after 8 days; settings: NCE-G 140, 192 h
# GB-1 = assay: Cytotoxicity against human GB-1 cells measured after 8 days; settings: GB-1, 192 h
# Hs 683 = assay: Cytotoxicity against human Hs 683 cells measured after 8 days; settings: Hs 683, 192 h
# FaDu = assay: Cytotoxicity against human FaDu cells measured after 8 days; settings: 192 h
# BHY = assay: Cytotoxicity against human BHY cells measured after 8 days; settings: 192 h
# [3] = Cytotoxicity against human BICR 10 cells measured after 8 days; settings: BICR 10, 192 h
# [4] = Cytotoxicity against human COV362.4 cells measured after 8 days; settings: COV362.4, 192 h
# BT-474 = assay: Cytotoxicity against human BT-474 cells measured after 8 days; settings: BT-474, 192 h
# [5] = Cytotoxicity against human COV504 cells measured after 8 days; settings: COV504, 192 h
# OVCAR-4 = assay: Cytotoxicity against human OVCAR-4 cells measured after 8 days; settings: OVCAR-4, 192 h
# CAPAN-1 = assay: Cytotoxicity against human CAPAN-1 cells measured after 8 days; settings: CAPAN-1, 192 h
# CFPAC-1 = assay: Cytotoxicity against human CFPAC-1 cells measured after 8 days; settings: CFPAC-1, 192 h
# HPAF-II = assay: Cytotoxicity against human HPAF-II cells measured after 8 days; settings: 192 h
# HuP-T3 = assay: Cytotoxicity against human HuP-T3 cells measured after 8 days; settings: HuP-T3, 192 h
# BOKU = assay: Cytotoxicity against human BOKU cells measured after 8 days; settings: 192 h
# HEp-2 = assay: Cytotoxicity against human HEp-2 cells measured after 8 days; settings: HEp-2, 192 h
# [6] = Cytotoxicity against human MS751 cells measured after 8 days; settings: MS751, 192 h
# [7] = Cytotoxicity against human KCI-MOH1 cells measured after 8 days; settings: KCI-MOH1, 192 h
# [8] = Cytotoxicity against human CL-11 cells measured after 8 days; settings: CL-11, 192 h
# PANC-1 = assay: Cytotoxicity against human PANC-1 cells measured after 8 days; settings: PANC-1, 192 h
# [9] = Cytotoxicity against human PK-45P cells measured after 8 days; settings: 192 h
# [10] = Cytotoxicity against human PK-8 cells measured after 8 days; settings: PK-8, 192 h
# YAPC = assay: Cytotoxicity against human YAPC cells measured after 8 days; settings: 192 h
# HT55 = assay: Cytotoxicity against human HT55 cells measured after 8 days; settings: HT55, 192 h
# RCM-1 = assay: Cytotoxicity against human RCM-1 cells measured after 8 days; settings: RCM-1, 192 h
# B16-F10 = assay: Cytotoxicity against mouse B16-F10 Luciferase cells measured after 8 days; settings: B16-F10, 192 h
# OE33 = assay: Cytotoxicity against human OE33 cells measured after 8 days; settings: OE33, 192 h
# [11] = Cytotoxicity against human COLO 858 cells measured after 8 days; settings: COLO 858, 192 h
# [12] = Cytotoxicity against human FA9JTOTERT cells measured after 8 days; settings: 192 h
# A498 = assay: Cytotoxicity against human A498 cells measured after 8 days; settings: A498, 192 h
# CAKI-2 = assay: Cytotoxicity against human CAKI-2 cells measured after 8 days; settings: CAKI-2, 192 h
# [13] = Cytotoxicity against human VMRC-RCW cells measured after 8 days; settings: 192 h
# LOX IMVI = assay: Cytotoxicity against human LOX IMVI cells measured after 8 days; settings: 192 h
# MDA-MB-435 = assay: Cytotoxicity against human MDA-MB-435 cells measured after 8 days; settings: MDA-MB-435, 192 h
# SK-MEL-24 = assay: Cytotoxicity against human SK-MEL-24 cells measured after 8 days; settings: SK-MEL-24, 192 h
# [14] = Cytotoxicity against human HLF cells measured after 8 days; settings: 192 h
# [15] = Cytotoxicity against human HuH-1 cells measured after 8 days; settings: HuH-1, 192 h
# [16] = Cytotoxicity against human JHH7 cells measured after 8 days; settings: JHH7, 192 h
# SK-HEP1 = assay: Cytotoxicity against human SK-HEP1 cells measured after 8 days; settings: SK-HEP1, 192 h
# 23132-87 = assay: Cytotoxicity against human 23132-87 cells measured after 8 days; settings: 23132-87, 192 h
# Hs746T = assay: Cytotoxicity against human Hs746T cells measured after 8 days; settings: 192 h
# MKN-74 = assay: Cytotoxicity against human MKN-74 cells measured after 8 days; settings: MKN-74, 192 h
# [17] = Cytotoxicity against human RERF-GC-1B cells measured after 8 days; settings: 192 h
# [18] = Cytotoxicity against human SNU-216 cells measured after 8 days; settings: SNU-216, 192 h
# [19] = Cytotoxicity against mouse AE17 cells measured after 8 days; settings: AE17, 192 h
# COR-L279 = assay: Cytotoxicity against human COR-L279 cells measured after 8 days; settings: COR-L279, 192 h
# COR-L47 = assay: Cytotoxicity against human COR-L47 cells measured after 8 days; settings: COR-L47, 192 h
# [20] = Cytotoxicity against human SNU-668 cells measured after 8 days; settings: SNU668, 192 h
# 8505C = assay: Cytotoxicity against human 8505C cells measured after 8 days; settings: 192 h
# [21] = Cytotoxicity against human UM-UC-1 cells measured after 8 days; settings: UM-UC-1, 192 h
# [22] = Cytotoxicity against human HCC15 cells measured after 8 days; settings: HCC15, 192 h
# HEC-1-A = assay: Cytotoxicity against human HEC-1-A cells measured after 8 days; settings: 192 h
# HEC-1B cell line = assay: Cytotoxicity against human HEC-1B cell line measured after 8 days; settings: 192 h
# [23] = Cytotoxicity against human HEC-6 cells measured after 8 days; settings: HEC-6, 192 h
# Ishikawa = assay: Cytotoxicity against human Ishikawa cells measured after 8 days; settings: 192 h
structure (smiles),measurement,setting,value
C/C=C/Cn1cc(-c2ccc(C(=O)N3CCOCC3)cc2)c2cc[nH]c2c1=O,IC50,EJM,20 µM
same,IC50,EL4,20 µM
same,IC50,JIYOYE,2.85 µM
same,IC50,LXFL 529,20 µM
same,IC50,[1],20 µM
same,IC50,MHH-ES-1,20 µM
same,IC50,U2OS,20 µM
same,IC50,CHP-212,18.6 µM
same,IC50,[2],20 µM
same,IC50,GB-1,20 µM
same,IC50,Hs 683,20 µM
same,IC50,FaDu,20 µM
same,IC50,BHY,20 µM
same,IC50,[3],20 µM
same,IC50,[4],20 µM
same,IC50,BT-474,20 µM
same,IC50,[5],20 µM
same,IC50,OVCAR-4,20 µM
same,IC50,CAPAN-1,20 µM
same,IC50,CFPAC-1,20 µM
same,IC50,HPAF-II,20 µM
same,IC50,HuP-T3,20 µM
same,IC50,BOKU,20 µM
same,IC50,HEp-2,20 µM
same,IC50,[6],20 µM
same,IC50,[7],20 µM
same,IC50,[8],20 µM
same,IC50,PANC-1,20 µM
same,IC50,[9],20 µM
same,IC50,[10],20 µM
same,IC50,YAPC,20 µM
same,IC50,HT55,20 µM
same,IC50,RCM-1,20 µM
same,IC50,B16-F10,20 µM
same,IC50,OE33,20 µM
same,IC50,[11],20 µM
same,IC50,[12],20 µM
same,IC50,A498,20 µM
same,IC50,CAKI-2,20 µM
same,IC50,[13],20 µM
same,IC50,LOX IMVI,20 µM
same,IC50,MDA-MB-435,20 µM
same,IC50,SK-MEL-24,20 µM
same,IC50,[14],20 µM
same,IC50,[15],20 µM
same,IC50,[16],20 µM
same,IC50,SK-HEP1,20 µM
same,IC50,23132-87,20 µM
same,IC50,Hs746T,20 µM
same,IC50,MKN-74,20 µM
same,IC50,[17],20 µM
same,IC50,[18],20 µM
same,IC50,[19],18.1 µM
same,IC50,COR-L279,20 µM
same,IC50,COR-L47,20 µM
same,IC50,[20],20 µM
same,IC50,8505C,20 µM
same,IC50,[21],20 µM
same,IC50,[22],20 µM
same,IC50,HEC-1-A,20 µM
same,IC50,HEC-1B cell line,10.6 µM
same,IC50,[23],20 µM
same,IC50,Ishikawa,20 µM
